Measured values reported in patent US20250114338A1, “TETRAHYDRO-PYRIDO[3,4-b]INDOLE ESTROGEN RECEPTOR MODULATORS AND USES THEREOF” (Genentech, Inc., priority 2014, published 2025).

These molecules were tested on ER-alpha MCF7 (assay: ER-alpha MCF7 HCS EC50; stated as measured by in vitro cell proliferation assays of Examples 902 and 903). Details: Homo sapiens, MCF7, MCF7 cells; Table 2.
Assay type: cell-based
Excerpt: The CellTiter-Glo® Luminescent Cell Viability Assay is a homogeneous method to determine the number of viable cells in culture based on quantitation of the ATP present, which signals the presence of metabolically active cells. The CellTiter-Glo® Assay is designed for use with multiwell plate formats, making it ideal for automated high-throughput screening (HTS), cell proliferation and cytotoxicity assays. The homogeneous assay procedure involves adding a single reagent (CellTiter-Glo® Reagent) directly to cells cultured in serum-supplemented medium. Cell washing, removal of medium or multiple pipetting steps are not required. The Cell Titer-Glo® Luminescent Cell Viability Assay, including reagents and protocol are commercially available (Promega Corp., Madison, WI, Technical Bulletin TB288).
The assay assesses the ability of compounds to enter cells and inhibit cell proliferation. The assay principle is based on the determination of the number of viable cells present by quantitating the ATP present in a homogenous assay where addition of the Cell Titer-Glo® reagent results in cell lysis and generation of a luminescent signal through the luciferase reaction. The luminescent signal is proportional to the amount of ATP present.
Cell Culture Medium: RPMI or DMEM high glucose, 10% Fetal Bovine Serum, 2 mM L-Glutamine, P/S. Incubate O/N (overnight) at 37° C., 5% CO2.
Day 2—Add Drug to Cells, Compound Dilution, DMSO Plates (serial 1:2 for 9 points). Add 20 μl of compound at 10 mM in the 2nd column of 96 well plate. […] Add 147 μl of Media into all wells. Transfer 3 μl of DMSO+ compound from each well in the DMSO Plate to each corresponding well on Media Plate using Rapidplate® (Caliper, a Perkin-Elmer Co.). For 2 drug combination studies, transfer one drug 1.5 μl of DMSO+ compound from each well in the DMSO Plate to each corresponding well on Media Plate using Rapidplate. Then, transfer another drug 1.5 μl to the medium plate.
Drug Addition to Cells, Cell Plate (1:10 dilution): Add 6 μl of media+ compound directly to cells (54 μl of media on the cells already). Incubate 3 days at 37° C., 5% CO2 in an incubator that will not be opened often.
Day 5—Develop Plates, Thaw Cell Titer Glo Buffer at room temperature: Remove Cell Plates from 37° C. and equilibrate to room temperature for about 30 minutes. Add Cell Titer-Glo® Buffer to Cell Titer-Glo® Substrate (bottle to bottle). Add 30 μl Cell Titer-Glo® Reagent (Promega cat. #G7572) to each well of cells. Place on plate shaker for about 30 minutes. Read luminescence on Analyst HT Plate Reader (half second per well).
Cell viability assays and combination assays: Cells were seeded at 1000-2000 cells/well in 384-well plates for 16 h. On day two, nine serial 1:2 compound dilutions were made in DMSO in a 96 well plate. The compounds were further diluted into growth media using a Rapidplate® robot (Zymark Corp., Hopkinton, MA). The diluted compounds were then added to quadruplicate wells in 384-well cell plates and incubated at 37° C. and 5% CO2. After 4 days, relative numbers of viable cells were measured by luminescence using Cell Titer-Glo® (Promega) according to the manufacturer's instructions and read on a Wallac Multilabel Reader® (PerkinElmer, Foster City). EC50 values were calculated using Prism® 4.0 software (GraphPad, San Diego).
5 ul of each individual compound concentration and each control compound was transferred to the cell plate. Fulvestrant was added to control wells at a final concentration of 100 nM). DMSO was added to negative control wells (0.2% v/v).

Row | SMILES | EC50
1 | C[C@@H]1Cc2c([nH]c3ccccc23)[C@@H](c2c(F)cc(OC3CN(CC4CC4)C3)cc2F)N1CC(C)(C)F [Example 164, (1R,3R)-1-[4-[1-(cyclopropylmethyl)azetidin-3-yl]oxy-2,6-difluoro-phenyl]-2-(2-fluoro-2-methyl-propyl)-3-methyl-1,3,4,9-tetrahydropyrido[3,4-b]indole] | 216 pM
2 | C[C@@H]1Cc2c([nH]c3ccccc23)[C@@H](c2c(F)cc(OC3CN(CC4CCCC4)C3)cc2F)N1CC(C)(C)F [Example 165, (1R,3R)-1-[4-[1-(cyclopentylmethyl)azetidin-3-yl]oxy-2,6-difluoro-phenyl]-2-(2-fluoro-2-methyl-propyl)-3-methyl-1,3,4,9-tetrahydropyrido[3,4-b]indole] | 2000 pM
3 | C[C@@H]1Cc2c([nH]c3ccccc23)[C@@H](c2c(F)cc(OC3CN(CCF)C3)cc2F)N1CC(C)(C)F [Example 166, (1R,3R)-1-[2,6-difluoro-4-[1-(2-fluoroethyl)azetidin-3-yl]oxy-phenyl]-2-(2-fluoro-2-methyl-propyl)-3-methyl-1,3,4,9-tetrahydropyrido[3,4-b]indole] | 175 pM
4 | C#CCN1CC(Oc2cc(F)c([C@@H]3c4[nH]c5ccccc5c4C[C@@H](C)N3CC(C)(C)F)c(F)c2)C1 [Example 167, (1R,3R)-1-[2,6-difluoro-4-(1-prop-2-ynylazetidin-3-yl)oxy-phenyl]-2-(2-fluoro-2-methyl-propyl)-3-methyl-1,3,4,9-tetrahydropyrido[3,4-b]indole] | 83 pM
5 | CC(C)N1CC(Oc2cc(F)c([C@@H]3c4[nH]c5ccccc5c4C[C@@H](C)N3CC(C)(C)F)c(F)c2)C1 [Example 168, (1R,3R)-1-[2,6-difluoro-4-(1-isopropylazetidin-3-yl)oxy-phenyl]-2-(2-fluoro-2-methyl-propyl)-3-methyl-1,3,4,9-tetrahydropyrido[3,4-b]indole] | 122 pM
6 | CC(C)CN1CC(Oc2cc(F)c([C@@H]3c4[nH]c5ccccc5c4C[C@@H](C)N3CC(C)(C)F)c(F)c2)C1 [Example 169, (1R,3R)-1-[2,6-difluoro-4-(1-isobutylazetidin-3-yl)oxy-phenyl]-2-(2-fluoro-2-methyl-propyl)-3-methyl-1,3,4,9-tetrahydropyrido[3,4-b]indole] | 409 pM
7 | C[C@@H]1Cc2c([nH]c3ccccc23)[C@@H](c2c(F)cc(OC3CN(C(=O)OC(C)(C)C)C3)cc2F)N1CC(C)(C)F [Example 170, tert-butyl 3-[3,5-difluoro-4-[(1R,3R)-2-(2-fluoro-2-methyl-propyl)-3-methyl-1,3,4,9-tetrahydropyrido[3,4-b]indol-1-yl]phenoxy]azetidine-1-carboxylate] | 1000 pM
8 | CC[C@@H]1Cc2c([nH]c3ccccc23)[C@@H](c2c(F)cc(OCCN3CC(CF)C3)cc2F)N1CC(C)(C)F [Example 171, (1R,3R)-1-(2,6-difluoro-4-(2-(3-(fluoromethyl)azetidin-1-yl)ethoxy)phenyl)-3-ethyl-2-(2-fluoro-2-methylpropyl)-2,3,4,9-tetrahydro-1H-pyrido[3,4-b]indole] | 471 pM
9 | CC[C@H]1Cc2c([nH]c3ccccc23)[C@@H](c2c(F)cc(OCCN3CC(CF)C3)cc2F)N1CC(C)(C)F [Example 172, (1R,3S)-1-(2,6-difluoro-4-(2-(3-(fluoromethyl)azetidin-1-yl)ethoxy)phenyl)-3-ethyl-2-(2-fluoro-2-methylpropyl)-2,3,4,9-tetrahydro-1H-pyrido[3,4-b]indole] | 17000 pM
10 | C[C@@H]1Cc2c([nH]c3ccccc23)[C@@H](c2c(F)cc(OCCN3CC(CF)C3)cc2F)N1CC1(C)CCC1 [Example 173, (1R,3R)-1-[2,6-difluoro-4-[2-[3-(fluoromethyl)azetidin-1-yl]ethoxy]phenyl]-3-methyl-2-[(1-methylcyclobutyl)methyl]-1,3,4,9-tetrahydropyrido[3,4-b]indole] | 1000 pM
11 | C[C@@H]1Cc2c([nH]c3ccccc23)[C@@H](c2c(F)cc(OCCN3CC(CF)C3)cc2F)N1CC(F)(F)F [Example 174, (1R,3R)-1-[2,6-difluoro-4-[2-[3-(fluoromethyl)azetidin-1-yl]ethoxy]phenyl]-3-methyl-2-(2,2,2-trifluoroethyl)-1,3,4,9-tetrahydropyrido[3,4-b]indole] | 285 pM
12 | C[C@@H]1Cc2c([nH]c3ccccc23)[C@H](c2c(F)cc(OCCN3CC(CF)C3)cc2F)N1CC(F)(F)F [Example 175, (1S,3R)-1-[2,6-difluoro-4-[2-[3-(fluoromethyl)azetidin-1-yl]ethoxy]phenyl]-3-methyl-2-(2,2,2-trifluoroethyl)-1,3,4,9-tetrahydropyrido[3,4-b]indole] | 14000 pM
13 | COC(CCN1CC(Oc2cc(F)c([C@@H]3c4[nH]c5ccccc5c4C[C@@H](C)N3CC(C)(C)F)c(F)c2)C1)OC [Example 176, (1R,3R)-1-[4-[1-(3,3-dimethoxypropyl)azetidin-3-yl]oxy-2,6-difluoro-phenyl]-2-(2-fluoro-2-methyl-propyl)-3-methyl-1,3,4,9-tetrahydropyrido[3,4-b]indole] | 31 pM
14 | C[C@@H]1Cc2c([nH]c3ccccc23)[C@@H](c2ccc(OC3CN(CCCF)C3)cc2F)N1CC(C)(C)F [Example 177, (1R,3R)-1-[2-fluoro-4-[1-(3-fluoropropyl)azetidin-3-yl]oxy-phenyl]-2-(2-fluoro-2-methyl-propyl)-3-methyl-1,3,4,9-tetrahydropyrido[3,4-b]indole] | 164 pM
15 | CC(C)(F)CN1CCc2c([nH]c3ccccc23)C1c1c(F)cc(OCCN2CC(CF)C2)cc1F (stereo not drawn) [Example 178, 1-[2,6-difluoro-4-[2-[3-(fluoromethyl)azetidin-1-yl]ethoxy]phenyl]-2-(2-fluoro-2-methyl-propyl)-1,3,4,9-tetrahydropyrido[3,4-b]indole] | 500 pM
16 | C[C@@H]1Cc2c([nH]c3ccccc23)[C@H](c2ccc(OCCN3CC(CF)C3)cc2)N1S(C)(=O)=O [Example 179, (1S,3R)-1-[4-[2-[3-(fluoromethyl)azetidin-1-yl]ethoxy]phenyl]-3-methyl-2-methylsulfonyl-1,3,4,9-tetrahydropyrido[3,4-b]indole] | 13000 pM
17 | C[C@@H]1Cc2c([nH]c3ccccc23)[C@@H](c2ccc(OCCN3CC(CF)C3)cc2)N1S(C)(=O)=O [Example 180, (1R,3R)-1-(4-(2-(3-(fluoromethyl)azetidin-1-yl)ethoxy)phenyl)-3-methyl-2-(methylsulfonyl)-2,3,4,9-tetrahydro-1H-pyrido[3,4-b]indole] | 222 pM
18 | CC(CO)C(=O)N1[C@H](c2c(F)cc(OCCN3CC(CF)C3)cc2F)c2[nH]c3ccccc3c2C[C@H]1C (stereo partly drawn) [Example 181, 1-((1R,3R)-1-(2,6-difluoro-4-(2-(3-(fluoromethyl)azetidin-1-yl)ethoxy)phenyl)-3-methyl-3,4-dihydro-1H-pyrido[3,4-b]indol-2(9H)-yl)-3-hydroxy-2-methylpropan-1-one] | 4000 pM
19 | C[C@@H]1Cc2c([nH]c3ccccc23)[C@@H](c2c(F)cc(OCCN3CC(CF)C3)cc2F)N1C(=O)C1CNC1 [Example 182, azetidin-3-yl-[(1R,3R)-1-[2,6-difluoro-4-[2-[3-(fluoromethyl)azetidin-1-yl]ethoxy]phenyl]-3-methyl-1,3,4,9-tetrahydropyrido[3,4-b]indol-2-yl] methanone] | > 100000 pM
20 | C[C@@H]1Cc2c([nH]c3ccccc23)[C@@H](c2c(F)cc(OCCN3CC(CF)C3)cc2F)N1C(=O)C1CC1F (stereo partly drawn) [Example 183, ((1R,3R)-1-(2,6-difluoro-4-(2-(3-(fluoromethyl)azetidin-1-yl)ethoxy)phenyl)-3-methyl-3,4-dihydro-1H-pyrido[3,4-b]indol-2(9H)-yl)(2-fluorocyclopropyl)methanone] | 4000 pM
21 | C[C@@H]1CCN([C@@H](C)COc2cc(F)c([C@@H]3c4[nH]c5ccccc5c4C[C@@H](C)N3CC(C)(C)F)c(F)c2)C1 [Example 184] | 494 pM
